From ChEMBL document CHEMBL1201862, “PubChem BioAssay data set” (2004)
The source made the active and inactive calls.

Experiments:
[1] = biological target: T1, Coagulation factor XII (Homo sapiens, UniProt P00748); assay type: functional;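 note: activated factor XIIa alpha cleaving a fluorogenic AMC peptide substrate; inhibitor potency from loss of enzyme activity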
T1 sequence (P00748 whole entry): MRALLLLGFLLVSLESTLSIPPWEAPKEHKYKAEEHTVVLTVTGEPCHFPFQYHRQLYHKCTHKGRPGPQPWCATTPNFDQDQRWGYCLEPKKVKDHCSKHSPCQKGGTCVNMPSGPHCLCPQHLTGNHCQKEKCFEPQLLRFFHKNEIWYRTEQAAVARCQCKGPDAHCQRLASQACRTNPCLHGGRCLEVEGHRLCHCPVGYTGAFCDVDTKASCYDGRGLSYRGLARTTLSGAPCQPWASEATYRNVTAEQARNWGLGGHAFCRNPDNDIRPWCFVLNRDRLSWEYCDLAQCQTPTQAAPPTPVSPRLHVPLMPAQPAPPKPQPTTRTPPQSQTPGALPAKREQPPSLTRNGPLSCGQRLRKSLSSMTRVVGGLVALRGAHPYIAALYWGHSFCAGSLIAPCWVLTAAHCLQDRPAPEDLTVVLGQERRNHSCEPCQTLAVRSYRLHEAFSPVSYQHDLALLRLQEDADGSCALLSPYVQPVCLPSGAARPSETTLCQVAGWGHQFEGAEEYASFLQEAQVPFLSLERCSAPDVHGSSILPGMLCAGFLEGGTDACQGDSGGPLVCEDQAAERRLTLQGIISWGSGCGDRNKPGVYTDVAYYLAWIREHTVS

[2] = biological target: Prothrombin (Homo sapiens, UniProt P00734); test: Thrombin 1536 HTS Dose Response Confirmation. [Related pubchem assays: 1046 (Thrombin 1536 HTS; hits were confirmed in this assay)]; assay type: functional
[3] = biological target: T2, Leucine aminopeptidase (Plasmodium falciparum 3D7, UniProt Q8IL11); test: P. falciparum M17LAP inhibitors, primary screen, biochemical, fluorogenic H-Leu-NHMec substrate, 1536-well (AID 1619); assay type: functional
T2 sequence (Q8IL11 whole entry): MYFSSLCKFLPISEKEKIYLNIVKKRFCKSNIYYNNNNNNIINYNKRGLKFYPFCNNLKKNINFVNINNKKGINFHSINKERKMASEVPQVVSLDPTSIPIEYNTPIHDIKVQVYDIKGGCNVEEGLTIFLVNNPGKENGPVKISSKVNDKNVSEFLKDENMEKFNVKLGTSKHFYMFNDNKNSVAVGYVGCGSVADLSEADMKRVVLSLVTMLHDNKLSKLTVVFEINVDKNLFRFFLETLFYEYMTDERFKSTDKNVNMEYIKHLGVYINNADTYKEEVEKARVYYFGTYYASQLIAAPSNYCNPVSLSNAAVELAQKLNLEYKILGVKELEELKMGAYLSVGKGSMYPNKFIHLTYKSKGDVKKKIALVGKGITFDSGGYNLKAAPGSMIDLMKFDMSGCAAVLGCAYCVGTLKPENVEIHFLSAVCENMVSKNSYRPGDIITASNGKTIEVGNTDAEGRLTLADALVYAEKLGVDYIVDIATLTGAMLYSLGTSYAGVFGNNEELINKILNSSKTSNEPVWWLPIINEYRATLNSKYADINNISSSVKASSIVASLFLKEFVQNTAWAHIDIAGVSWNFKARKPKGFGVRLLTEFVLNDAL

[4] = cells; assay type: functional, cell-based
[5] = cells; assay type: functional, cell-based; remark: listed apart in the source
[6] = Luminescence Cell-Based Dose Confirmation HTS to Identify Activators of 5'UTR Stem-Loop Driven Alpha-Synuclein mRNA Translation in H4 Neuroglioblastoma Cells. [Related pubchem assays: 1829 (Project Summary), 1814 (Primary HTS)]; assay type: functional
[7] = Luminescence Cell-Based Dose Response HTS to Identify Activators of Luciferase Translation or Activity in H4 […] Cells. [Related pubchem assays: 1829 (Project Summary), 1814 (Primary HTS)]; assay type: functional
[8] = tested on: H4; test: Luminescence Cell-Based Dose Response HTS to Identify Activators of 5'UTR Stem-Loop Driven Prion Protein mRNA Translation in H4 Neuroglioblastoma Cells. [Related pubchem assays: 1829 (Project Summary), 1814 (Primary HTS)]; assay type: functional; details: Homo sapiens
[9] = biological target: Eukaryotic translation initiation factor 4E (Mus musculus, UniProt P63073); test: blockers of eIF4G binding by eIF4E – biochemical, TR-FRET, dose response (AID 855); assay type: functional;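 note: potency for disrupting eIF4E binding to eIF4GI seen as loss of FRET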
[10] = biological target: Voltage-dependent T-type calcium channel subunit alpha-1H (Homo sapiens, UniProt O95180); assay type: functional;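 note: channel activity triggered by adding a high calcium stimulation buffer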
[11] = A Cell Based Secondary Assay To Explore Cytotoxicity of Compounds that Sensitize Mycobacterium Tuberculosis to Beta-Lactam Antibiotics.; assay type: functional
[12] = viability loss in Vero cells – cytotoxicity control for Vif-APOBEC3G degradation inhibitor project, dose response (AID 1117358); assay type: functional; details: Vero
[13] = biological target: Trypsin (Sus scrofa, UniProt P00761); test: trypsin protease activity blockade – biochemical, quenched peptide fluorescence, cherry-pick, selectivity assay for Rce1 protease inhibitor project, dose response (AID 488789)
[14] = biological target: T3, CAAX prenyl protease 2 (Saccharomyces cerevisiae S288c, UniProt Q03530); assay type: biochemical
T3 sequence (Q03530 whole entry): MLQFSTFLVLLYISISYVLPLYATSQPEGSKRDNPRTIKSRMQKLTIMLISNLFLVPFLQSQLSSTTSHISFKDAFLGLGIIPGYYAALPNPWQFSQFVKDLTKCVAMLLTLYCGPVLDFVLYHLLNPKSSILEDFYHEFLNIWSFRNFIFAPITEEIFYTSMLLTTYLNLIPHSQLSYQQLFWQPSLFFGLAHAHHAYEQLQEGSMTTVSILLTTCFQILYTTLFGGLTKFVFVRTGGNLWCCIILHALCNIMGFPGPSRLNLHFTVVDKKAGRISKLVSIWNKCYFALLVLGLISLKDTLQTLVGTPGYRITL

Sequence of Voltage-dependent T-type calcium channel subunit alpha-1H (O95180 whole entry): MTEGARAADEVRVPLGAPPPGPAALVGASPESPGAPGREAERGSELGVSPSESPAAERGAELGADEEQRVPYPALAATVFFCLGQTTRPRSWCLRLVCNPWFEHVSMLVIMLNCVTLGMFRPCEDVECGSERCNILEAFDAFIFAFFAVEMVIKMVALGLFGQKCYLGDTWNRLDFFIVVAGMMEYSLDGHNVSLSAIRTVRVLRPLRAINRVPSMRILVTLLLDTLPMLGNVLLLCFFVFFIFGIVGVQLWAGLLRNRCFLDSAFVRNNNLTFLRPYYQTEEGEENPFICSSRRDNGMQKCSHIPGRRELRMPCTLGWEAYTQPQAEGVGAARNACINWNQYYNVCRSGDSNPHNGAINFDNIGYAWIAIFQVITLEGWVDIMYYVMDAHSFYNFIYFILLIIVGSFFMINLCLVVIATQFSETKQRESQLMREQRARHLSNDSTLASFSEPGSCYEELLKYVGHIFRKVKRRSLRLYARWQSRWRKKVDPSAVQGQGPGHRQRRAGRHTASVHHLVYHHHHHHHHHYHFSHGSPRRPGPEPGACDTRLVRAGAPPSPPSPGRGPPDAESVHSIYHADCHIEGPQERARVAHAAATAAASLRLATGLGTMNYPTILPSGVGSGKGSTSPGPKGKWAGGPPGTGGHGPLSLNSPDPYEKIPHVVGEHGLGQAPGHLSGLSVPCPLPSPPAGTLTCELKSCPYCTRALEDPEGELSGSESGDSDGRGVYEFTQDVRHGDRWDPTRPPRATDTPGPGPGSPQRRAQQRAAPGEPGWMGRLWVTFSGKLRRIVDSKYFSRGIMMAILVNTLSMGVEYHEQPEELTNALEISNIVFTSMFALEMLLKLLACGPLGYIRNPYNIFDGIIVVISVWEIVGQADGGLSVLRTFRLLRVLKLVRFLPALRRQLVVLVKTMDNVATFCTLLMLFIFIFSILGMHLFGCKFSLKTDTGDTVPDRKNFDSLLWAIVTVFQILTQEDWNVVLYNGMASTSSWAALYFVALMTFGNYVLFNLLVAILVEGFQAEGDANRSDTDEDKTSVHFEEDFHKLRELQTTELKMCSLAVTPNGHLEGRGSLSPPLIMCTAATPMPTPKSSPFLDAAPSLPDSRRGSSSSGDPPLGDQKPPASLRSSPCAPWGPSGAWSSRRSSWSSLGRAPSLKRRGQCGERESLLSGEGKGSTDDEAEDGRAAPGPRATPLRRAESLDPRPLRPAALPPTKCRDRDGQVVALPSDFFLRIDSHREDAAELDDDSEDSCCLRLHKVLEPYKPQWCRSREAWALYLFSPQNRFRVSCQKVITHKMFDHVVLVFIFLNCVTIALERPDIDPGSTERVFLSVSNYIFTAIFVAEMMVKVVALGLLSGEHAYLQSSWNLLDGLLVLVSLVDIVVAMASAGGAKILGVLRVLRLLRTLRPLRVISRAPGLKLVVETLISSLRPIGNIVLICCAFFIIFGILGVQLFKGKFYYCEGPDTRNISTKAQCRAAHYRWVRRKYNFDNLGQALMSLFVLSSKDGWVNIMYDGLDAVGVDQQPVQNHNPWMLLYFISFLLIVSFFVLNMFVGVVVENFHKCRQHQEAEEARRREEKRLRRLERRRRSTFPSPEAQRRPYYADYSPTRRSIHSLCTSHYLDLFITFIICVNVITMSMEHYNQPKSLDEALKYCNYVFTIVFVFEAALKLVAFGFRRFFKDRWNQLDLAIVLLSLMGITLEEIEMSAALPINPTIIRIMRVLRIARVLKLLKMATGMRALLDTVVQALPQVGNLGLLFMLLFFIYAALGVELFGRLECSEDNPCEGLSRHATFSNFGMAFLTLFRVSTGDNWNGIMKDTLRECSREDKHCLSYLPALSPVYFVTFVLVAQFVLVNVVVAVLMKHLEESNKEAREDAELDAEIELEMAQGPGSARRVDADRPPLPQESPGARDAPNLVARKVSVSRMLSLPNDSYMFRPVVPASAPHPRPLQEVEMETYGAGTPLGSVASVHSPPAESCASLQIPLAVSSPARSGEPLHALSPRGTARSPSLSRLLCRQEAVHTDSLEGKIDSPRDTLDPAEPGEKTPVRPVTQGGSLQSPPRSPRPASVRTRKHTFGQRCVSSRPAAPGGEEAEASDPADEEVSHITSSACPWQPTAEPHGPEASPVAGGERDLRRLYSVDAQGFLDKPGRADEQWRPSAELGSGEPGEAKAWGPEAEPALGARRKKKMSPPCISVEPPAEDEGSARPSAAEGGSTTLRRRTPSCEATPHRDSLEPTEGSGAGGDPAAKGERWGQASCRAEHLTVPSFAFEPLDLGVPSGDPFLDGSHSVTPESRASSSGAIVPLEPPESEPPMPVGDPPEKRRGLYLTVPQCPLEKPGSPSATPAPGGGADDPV
Sequence of Trypsin (P00761 whole entry): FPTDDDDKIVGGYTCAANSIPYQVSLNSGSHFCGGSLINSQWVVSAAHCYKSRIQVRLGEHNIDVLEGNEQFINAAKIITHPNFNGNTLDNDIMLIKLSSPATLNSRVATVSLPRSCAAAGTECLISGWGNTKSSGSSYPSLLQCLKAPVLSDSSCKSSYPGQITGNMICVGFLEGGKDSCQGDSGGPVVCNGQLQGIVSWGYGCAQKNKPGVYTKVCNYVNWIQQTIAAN
Sequence of Eukaryotic translation initiation factor 4E (P63073 whole entry): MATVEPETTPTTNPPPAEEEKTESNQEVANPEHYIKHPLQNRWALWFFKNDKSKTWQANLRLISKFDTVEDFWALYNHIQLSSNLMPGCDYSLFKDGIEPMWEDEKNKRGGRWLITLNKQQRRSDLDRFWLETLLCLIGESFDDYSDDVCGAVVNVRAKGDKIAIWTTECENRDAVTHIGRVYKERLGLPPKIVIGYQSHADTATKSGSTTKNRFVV

## COC(=O)c1[nH]c(C)c(C(=O)C2=C(O)C(=O)N(CCN(C)C)C2c2cccc(OC)c2OC)c1C (configuration not stated)
[1]
  IC50: > 50 µM (inactive)

## Cn1c(Cl)nc2c1c(=O)n(Cc1cccc(Br)c1)c(=O)n2C
[2]
  IC50: > 50 µM (not active)

## Cn1c(SCC(=O)NCc2ccc3c(c2)OCO3)nnc1C1COc2ccccc2O1 (configuration not stated)
[3]
  IC50: < 1 µM (active)

## Cn1c(NCCc2ccccc2)cc(=O)n(C)c1=O
[1]
  IC50: > 50 µM (inactive)
[4]
  IC50: > 29.9 µM (inactive)
[5]
  EC50: > 29.9 µM (inactive)

## CCC(=O)Oc1ccc2c(C)c(Cl)c(=O)oc2c1
[2]
  IC50: > 50 µM (not active)

## O=C(CCS(=O)(=O)c1cccs1)N1CCCC1
[6]
  EC50: > 120 µM (not active)
[7]
  EC50: > 120 µM (not active)
[8]
  EC50: 17.8 µM (active)
[9]
  IC50: > 64 µM (inactive)

## Cc1ccc(S(=O)(=O)c2nc(-c3ccccc3)oc2NCc2cccnc2)cc1
[10]
  EC50: 8.55 µM (active)

## Cc1c(C=O)c(C=O)c(C)n1Cc1ccccc1
[11]
  CC50: 4.47 µM (active)
[12]
  CC50: 6.52 µM (active)

## CCc1cc(=O)oc2c3c(cc(OCC(=O)NCCCC(=O)O)c12)OC(C)(C)CC3
[13]
  AC50: 7.16 µM (active)
[14]
  AC50: 12.1 µM (active)

## COc1ccc(-c2c(-c3ccsc3)oc3ccc(N4CCOCC4)cc23)cn1
[13]
  AC50: 9.22 µM (active)

## COc1cc(/C=N/NC(=O)C2c3ccccc3Oc3ccccc32)ccc1O
[9]
  IC50: > 64 µM (inactive)

## O=C(NC1CCCCC1)N1CCS/C1=N\c1ccccc1
[10]
  EC50: 7.51 µM (active)

## CC1=NNC(=O)C1CCC(=O)N/N=C\c1ccc(Cl)c(Cl)c1 (configuration not stated)
[3]
  IC50: 15 µM (active)

## Cc1ccc(/C=N/NC(=O)c2nnn(-c3nonc3N)c2C(C)C)o1
[14]
  AC50: 2.96 µM (active)

## C/C(=N\NC(=O)Cc1c(C)n[nH]c1O)c1ccc2ccccc2c1
[3]
  IC50: 14 µM (active)
